Converted amounts (≈) assume the structure as drawn.
test system: Helicobacter pylori; test: Minimal inhibitory concentration (MIC) against Helicobacter pylori, urease read-out, 5 clinical strains; assay type: cell-based; conditions: 5 H. pylori clinical strains, 10% blood agar, 48 h at 37° C., microaerophilic, read-out: MIC
Procedure: The anti-Helicobacter activity of the subject compounds was assessed by the following in-vitro test procedure.
The activity of test compounds against Helicobacter pylori was determined against a standard set of 5 H. priori strains obtained from clinical material. Minimal inhibitory concentrations (MICs) were determined by measuring the activity of H. pylori urease after treatment of growing cultures of the bacteria with the antimicrobial agents.
The test compounds were dissolved in DMSO at a concentration of 10^-3 M. A dilution to 10^-4 M in DMSO was also prepared. 10 μl volumes of these solutions were pipetted in the wells of Repli-Dishes (®Sterilin). Wells containing DMSO alone were included as controls in each Repli-Dish. Ampicillin ((+)-6-[(2-amino-2-phenylacetyl)amino]-3,3-dimethyl-7-oxo-4-thia-1-azabicyclo[3.2.0]heptane-2-carboxylic acid trihydrate) and metronidazole (2-methyl-5-nitro-1H-imidazol-1-ethanol) were included as reference compounds in each batch of tests. (These compounds were tested at final concentrations of 10^-5, 10^-6, 10^-7 and 10^-8 M). Test plates were stored at 4° C. until used. The five isolates of H. pylori were maintained by subculture on 10% blood agar every 2 or 3 days. The bacteria were grown at 37° C. under an atmosphere containing 5% oxygen, 10% CO2 and 85% nitrogen. Suspensions of Helicobacter pylori for inoculum were prepared in Brain-heart infusion broth and adjusted to an absorbance of 1.5±0.3 at […].
Freshly prepared 10% blood agar held at 45° C. was added in 1 ml volumes to the wells of the test plates, thus diluting the test compounds to 10^-5 and 10^-6 M. The medium was allowed to cool, then 10 μl volumes of bacterial suspension were pipetted on the agar surface. The plates were incubated for 48 h at 37° C. under the microaerophilic atmosphere described above. […] After the 48 h of incubation, 1 ml volumes of urease broth were gently added to each Repli-Dish well and the plates were incubated at 37° C. for 2 h. 100 μl samples of fluid from each well were then pipetted into the wells of 96-place microdilution plates. A purple colour was interpreted as growth, yellow-orange as no growth of H. pylori. By this means a clear end-point was obtained, from which the inhibitory effects could be determined.
Table 1 summarizes the MIC values determined by the above procedure for a subset of the subject compounds.

Compound | MIC
CC[C@H]([C@H](O)c1ccc(Cl)cc1)n1ccn(-c2ccc(N3CCN(c4ccc(OC)cc4)CC3)nc2)c1=O (relative stereo) [compound 38, (±)-(R*,R*)-1-[1-[(4-chlorophenyl)hydroxymethyl]propyl]-1,3-dihydro-3-[6-[4-(4-methoxyphenyl)-1-piperazinyl]-3-pyridinyl]-2H-imidazol-2-one] | 0.1 µM (≈ 0.0534 µg/mL)
CCC[C@H]([C@H](O)c1ccc(Cl)cc1)n1ncn(-c2ccc(N3CCN(c4cccc(OC)c4)CC3)nc2)c1=O (relative stereo) [compound 40, (±)-(R* ,R*)-2-[1-[(4-chlorophenyl)hydroxymethyl]butyl]-2,4-dihydro-4-[6-[4-(3-methoxyphenyl)-1-piperazinyl]-3-pyridinyl]-3H-1,2,4-triazol-3-one] | 0.1 µM (≈ 0.0549 µg/mL)
CC[C@H]([C@H](O)c1ccc(Cl)cc1)n1ncn(-c2ccc(N3CCN(c4ccc(OC)c(OC)c4)CC3)nc2)c1=O (relative stereo) [compound 49, (±)-(R*,R*)-2-[1-[(4-chlorophenyl)hydroxymethyl]propyl]-4-[6-[4-(3,4-dimethoxy-phenyl)-1-piperazinyl]-3-pyridinyl]-2,4-dihydro-3H-1,2,4-triazol-3-one] | 0.01 µM (≈ 0.00565 µg/mL)
Cc1cc(N2CCN(c3ccc(-n4c(C)nn([C@H](C)[C@H](O)c5ccc(Cl)cc5Cl)c4=O)cc3)CC2)cc(C)c1O (single isomer, unassigned) [compound 32, (+)-(R*,R*)-2-[2-(2,4-dichlorophenyl)-2-hydroxy-1-methylethyl]-2,4-dihydro-4-[4-[4-(4-hydroxy-3,5-dimethylphenyl)-1-piperazinyl]phenyl]-5-methyl-3H-1,2,4-triazol-3-one dihydrate] | 1 µM
CCC(C(=O)c1ccc(Cl)cc1)n1ncn(-c2ccc(N3CCN(c4ccc(OC)cc4)CC3)cc2)c1=O (single isomer, unassigned; (+)) [compound 31, (+)-(A)-2-[1-(4-chlorobenzoyl)propyl]-2,4-dihydro-4-[4-[4-(4-methoxyphenyl)-1-piperazinyl]phenyl]-3H-1,2,4-triazol-3-one] | 1 µM (≈ 0.532 µg/mL)
CC(C(O)c1ccc(Br)cc1)n1ccn(-c2ccc(N3CCN(c4ccc(O)cc4)CC3)cc2)c1=O (stereo not shown) [compound 9, [A]+[B]-1-[2-(4-bromophenyl)-2-hydroxy-1-methylethyl]-1,3-dihydro-3-[4-[4-(4-hydroxyphenyl)-1-piperazinyl]phenyl]-2H-imidazol-2-one] | 1 µM (≈ 0.549 µg/mL)
Cc1cn(C(C)C(O)c2ccc(Cl)cc2)c(=O)n1-c1ccc(N2CCN(c3ccc(O)cc3)CC2)cc1 (stereo not shown) [compound 11, 1-[2-(4-chlorophenyl)-2-hydroxy-1-methylethyl]-1,3-dihydro-3-[4-[4-(4-hydroxyphenyl)-1-piperazinyl]phenyl]-4-methyl-2H-imidazol-2-one] | 1 µM (≈ 0.519 µg/mL)
CC(C(O)c1ccc(Cl)cc1)n1ccn(-c2ccc(N3CCN(c4ccc(O)cc4)CC3)cc2)c1=O (stereo not shown) [compound 12, 1-[2-(4-chlorophenyl)-2-hydroxy-1-methylethyl]-1,3-dihydro-3-[4-[4-(4-hydroxy-phenyl)-1-piperazinyl]phenyl]-2H-imidazol-2-one] | 0.1 µM (≈ 0.0505 µg/mL)
Cc1nn(C(C)C(O)c2ccc(Br)cc2)c(=O)n1-c1ccc(N2CCN(c3ccc(O)cc3)CC2)nc1 (stereo not shown) [compound 23, 2-[2-(4-bromophenyl)-2-hydroxy-1-methylethyl]-2,4-dihydro-4-[6-[4-(4-hydroxy-phenyl)-1-piperazinyl]-3-pyridinyl]-5-methyl-3H-1,2,4-triazol-3-one] | 1 µM (≈ 0.565 µg/mL)
Cc1cn(C(C)C(=O)c2ccc(Cl)cc2)c(=O)n1-c1ccc(N2CCN(c3ccc(O)cc3)CC2)cc1 (stereo not shown) [compound 30, 1-[1-(4-chlorobenzoyl)ethyl]-1,3-dihydro-3-[4-[4-(4-hydroxyphenyl)-1-piperazinyl]phenyl]-4-methyl-2H-imidazol-2-one] | 1 µM (≈ 0.517 µg/mL)
Cc1ccc(C(O)C(C)n2ncn(-c3ccc(N4CCN(c5ccc(O)cc5)CC4)cc3)c2=O)cc1 (stereo not shown) [compound 33, 2,4-dihydro-2-[2-hydroxy-1-methyl-2-(4-methylphenyl)ethyl]-4-[4-[4-(4-hydroxyphenyl)-1-piperazinyl]phenyl]-3H-1,2,4-triazol-3-one] | 1 µM (≈ 0.486 µg/mL)
COc1ccc(C(=O)C(C)n2ncn(-c3ccc(N4CCN(c5ccc(O)cc5)CC4)cc3)c2=O)cc1 (stereo not shown) [compound 35, 2,4-dihydro-4-[4-[4-(4-hydroxyphenyl)-1-piperazinyl]phenyl]-2-[1-(4-methoxy-benzoyl)ethyl]-3H-1,2,4-triazol-3-one] | 10 µM (≈ 5 µg/mL)

same assay, conditions: 48 h

Compound | MIC
CC(C(=O)c1ccc(Br)cc1)n1ncn(-c2ccc(N3CCN(c4ccc(O[Si](C)(C)C(C)(C)C)cc4)CC3)cc2)c1=O (stereo not shown) [compound 47, 2-[1-(4-bromobenzoyl)ethyl]-4-[4-[4-[4-[[(1,1-dimethylethyl)dimethylsilyl]oxy]phenyl]-1-piperazinyl]phenyl]-2,4-dihydro-3H-1,2,4-triazol-3-one] | 1 µM (≈ 0.663 µg/mL)

From US5650411A, “Substituted azolone derivatives” (Janssen Pharmaceutica N.V., priority 1993, dated 1997)
